Tests used:
[1] = Thermogravimetric analysis (TGA), volatility; format: physicochemical; settings: for volatilization behavior / decomposition in TGA / T1/2 (temperature at which one-half of the sample has been evaporated): 20 mg sample, 10° C./min, argon; for T1/2 (temperature at which one-half of the sample has been evaporated): TGA; for T1/2 volatility: Table III, comparative data
Description: A thermogravimetric analysis (TGA) of the product was carried out on a 20 mg sample of the material, heated at a rate of 10° C./min under an argon atmosphere. A thermogravimetric curve resulting from such a study, identified as "TGA-Mg(hfa)2.1,2-DME", is reproduced in FIG. 1 of the drawing.

[2] = Thermal stability, heating in evacuated/sealed ampoules at 200° C. for 24 hours; format: physicochemical; settings: ampoule, compared with corresponding THF adduct
Description: The thermal stability of Mg(hfa)2.1,2-DME is evidenced not only by the TGA data set forth in FIG. 1, but also by investigations as to the extent and nature of the decomposition of Mg(hfa)2.1,2-DME after prolonged heating at temperatures in the 100°-200° C. range.
As in the case of the magnesium complex, the thermal stability of Zn(hfa)2.1,2-DME is evidenced not only by the observed rapid and complete TGA volatilization behavior shown in FIG. 2, but also by measuring residual gas pressure after heating a sample of the material in a sealed ampoule at 200° C. for 24 hours.

[3] = Vapor pressure; format: physicochemical
[4] = at 200° C.; EP No. 0103446; cited from earlier work

Structure (SMILES) | volatilization behavior / decomposition in TGA ([1]; in words) | T1/2 (temperature at which one-half of the sample has been evaporated) [1] | T1/2 volatility [1] | residual pressure after heating [2] | sample discoloration after heating [2] | further results
COCCOC.O=C(C=C([O-])C(F)(F)F)C(F)(F)F.O=C(C=C([O-])C(F)(F)F)C(F)(F)F.[Mg+2] [Mg(hfa)2.1,2-DME] | rapid and complete volatilization of the complex over a narrow temperature range, indicating the absence of detectable decomposition | about 170 °C | 170 °C | lower residual pressure | less discoloration | vapor pressure ([3]; at about 120° C.): 10 mm (Hg)
O=C(C=C([O-])C(F)(F)F)C(F)(F)F.O=C(C=C([O-])C(F)(F)F)C(F)(F)F.[Mg+2].c1cnc2c(c1)ccc1cccnc12 [Mg(hfa)2.1,10-phenanthroline, reference compound] | – | – | 295 °C | – | – | –
C1CCOC1.C1CCOC1.O=C(C=C([O-])C(F)(F)F)C(F)(F)F.O=C(C=C([O-])C(F)(F)F)C(F)(F)F.[Mg+2] [Mg(hfa)2.2THF, reference compound] | – | 180 °C | – | – | – | volatilization without decomposition [4]: can be volatilized without decomposition
COCCOC.O=C(C=C([O-])C(F)(F)F)C(F)(F)F.O=C(C=C([O-])C(F)(F)F)C(F)(F)F.[Zn+2] [Zn(hfa)2.1,2-DME] | rapid and complete vaporization over a narrow range of temperatures, indicating no detectable thermal decomposition | 162 °C | 162 °C | lower residual pressure | less discoloration | T1/2 temperature compared with Zn(hfa)2.2THF ([1]; same TGA conditions, in words): only slightly higher than the T1/2 temperature of Zn(hfa)2.2THF; vapor pressure ([3]; at 125° C.): about 16 mm (Hg)
O=C(C=C([O-])C(F)(F)F)C(F)(F)F.O=C(C=C([O-])C(F)(F)F)C(F)(F)F.[Zn+2].c1cnc2c(c1)ccc1cccnc12 [Zn(hfa)2.1,10-phenanthroline, reference compound] | – | – | 310 °C | – | – | –
O=C(C=C([O-])C(F)(F)F)C(F)(F)F.O=C(C=C([O-])C(F)(F)F)C(F)(F)F.[Zn+2].c1ccc(-c2ccccn2)nc1 [Zn(hfa)2.2,2'-bipyridine, reference compound] | – | – | 295 °C | – | – | –

— patent publication US4558144A, “Volatile metal complexes” (Corning Glass Works, priority 1984, dated 1985)
